Results reported in patent publication EP2316926B1, “Enantioselective production of alpha-hydroxy carbonyl compounds” (priority 2009, dated 2011).

What was measured:
Assay type in all cases: biochemical
Gox0644 [1] = molecular target: T1, Gox0644 (Gluconobacter oxydans, UniProt Q5FT75); assay: Kinetic constants from purified enzyme by Lineweaver-Burk plots
Experimental: (§1) Determination of pH and temperature optima and enzyme kinetics: The optimum pH for enzyme activities was determined by a modified method of Salusjärvi, T. et al., Appl. Microbiol. Biotechnol. 65:306-314 (2004) using the following buffer system (50 mM final concentration each): sodium acetate pH 4.5 - 6.5, potassium phosphate pH 6.5 - 8.0, Tris-HCl pH 8.0 - 10. Temperature optima for the biocatalysts were determined under standard reaction conditions at temperatures ranging from 20 - 80 °C. The Michaelis constant (Km) for the proteins was determined from purified enzyme by Lineweaver-Burk plots. Assays were performed at optimum pH for each enzyme and at 30 °C using the best substrate and a targeted substrate. The Km for each substrate was calculated using concentrations of 0.0025 to 10 mM, and the Km NAD(P)H and NAD(P) was calculated using concentrations of 0.01 to 0.5 mM
(§2) 2.9 Kinetic parameters of the keto carbonyl reductases: Kinetic constants were determined from purified enzyme by Lineweaver-Burk plots. The Km and Vmax values for the substrates were calculated using concentrations of 0.025 to 10 mM. The optimal pH values and temperatures for enzyme activities are also shown in Tab. 8. Table 8: Summary of kinetic parameters

Gox1615 [2] = molecular target: T2, Gox1615 (Gluconobacter oxydans, UniProt Q5FQJ0); assay: as above
T2 sequence (Q5FQJ0 1-332): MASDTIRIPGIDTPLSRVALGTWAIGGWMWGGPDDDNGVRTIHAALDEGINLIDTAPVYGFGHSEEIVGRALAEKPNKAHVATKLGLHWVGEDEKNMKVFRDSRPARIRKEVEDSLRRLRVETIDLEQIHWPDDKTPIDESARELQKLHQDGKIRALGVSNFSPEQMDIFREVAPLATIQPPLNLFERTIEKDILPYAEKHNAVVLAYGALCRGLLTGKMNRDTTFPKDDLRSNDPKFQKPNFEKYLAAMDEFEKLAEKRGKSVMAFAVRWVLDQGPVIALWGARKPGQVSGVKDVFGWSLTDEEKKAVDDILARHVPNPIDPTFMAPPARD
Experimental: as §1, §2

Gox0644 [3] = molecular target: T1, Gox0644; assay: Coupled-enzyme biotransformation with cofactor regeneration, product determined by NMR (regio- and stereoselectivity)
Experimental: (§3) Measurement of enzyme activity: NADPH-dependent α-ketocarbonyl reductases were assayed by a routine method used for NAD(P)-linked enzymes by recording the rate of decrease of NADPH at 340 nm (ε = 6.22 mM^-1 x cm^-1)) with substrates at 30 °C. The reaction mixture (1 ml) for reduction of α-ketocarbonyl substrates contained 10 mM substrate, 40 mM potassium phosphate buffer pH 7.0, 0.025 mM NAD(P)H and the enzyme. Reactions were induced by addition of enzyme or substrate. One unit was defined as the amount of enzyme activity catalyzing the conversion of 1 µmol of pyridine nucleotide per min at 30 °C. NMR Analysis of Biotransformation Products: Biotransformations were extracted with equal volumes of CDCl3. and ^13C NMR spectra were recorded on a Bruker Avance 300 DPX spectrometer operating at 300 MHz for ^1H NMR and at 75 MHz for ^13C NMR, respectively. Spectra were processed using Bruker TonSpin 1.3 for Windows software and calibrated to the residual solvent peak of CDCl3 (δH = 7.26 / δC = 77.0).
(§4) Determination of the absolute configuration of the biotransformation product 2-hydroxy-pentan-3-one using chiral NMR shift solvents: Chiral NMR shift reagent (R,R)- and (S,S)-bis-α-methylbenzylamine-para-methyl (BMBA-p-Me) was prepared with small modifications according to the method reported by Kobayashi, Y et al., Tetrahedron Lett. 44: 7489-7491 (2003). In brief, the method of Marshall, J.A. and Mikowski, A. M., Org. Lett. 8:4375-4378 (2006) was used to synthesize 1,3-dibromo-2-methylpropane from 1,3-dihydroxy-2-methylpropane. Diisopropylethylamine (25.5 g), triphenylphosphine (20.1 g) and CBr4 (25.5 g) were sequentially added to a stirring solution of […] in 100 ml CH2Cl2 at 0 °C. The reaction was stirred for 3-4 h at 0 °C and concentrated under reduced pressure to give a green-brown oil. The oil was dissolved in diethyl ether and water (100 ml each) and the aqueous layer was extracted three times with diethyl ether. The organic extracts were combined and washed with water and brine, and dried over MgSO4. The reaction was concentrated under reduced pressure and applied to flash chromatography on silica 60 (230-400 mesh, 100% cyclohexane). Fractions containing the 1,3-dibromo-2-methylpropane product were combined (as judged by Si-TLC [100% cyclohexene]) and concentrated under reduced pressure resulting in a brown-yellow oil. The dibromopropane oil was used for the synthesis of (R,R)- and (S,S)-BMBA-p-Me as described by (Kobayashi, Y. et al., Org. Lett. 4(3):411-414 (2002). The crude oil was distilled by Kugelrohr at 240 °C to give crude BMPA-p-Me (yellow oil). BMBA-p-Me was purified by HPLC using a C18 column (Waters Xterra, 250 x 4.6 mm) at a flow rate of 0.8 ml min^-1 and a 40 min linear gradient of 50-100 % MeOH at ambient temperature. Fractions were concentrated under reduced pressure and BMBA-p-Me was identified by ^1H-NMR (colorless hygroscopic oil).
(§5) Approximately 7.5 mg of the extracted product 2-hydroxy-pentan-3-one was added to 15 mg (R,R)- or (S,S)-BMBA-p-Me (dissolved in 200-300 µl CDCl3) and analyzed by ^13C NMR with the readout adjusted to 0.001 ppm/point (sw = 239 ppm, td = 512k) (Fiorentino, A. et al., Tetrahedron., 62:8952-8958 (2006)). The absolute configuration was determined based on the sign of ΔδRR-SS (δ(R,R)-BMBA-p-Me - δ(S,S)-BMBA-p-Me) for the α-carbons adjacent to the hydroxymethine unit as formulated in the following model shown in Scheme 3 (valid for saturated secondary alcohols of acyclic and cyclic compounds): [drawing 7]
(§6) Cofactor regeneration: A prerequisite for the production of α-hydroxycarbonyl compounds is the regeneration of the expensive coenzymes and the stability of the protein catalysts. By coupling two coenzyme-dependent enzyme reactions, NADPH can be continuously regenerated. […]

Gox1615 [4] = molecular target: T2, Gox1615; assay: as above
Experimental: as §3, §4, §5, §6

[5] = NMR with chiral solvent BMBA-p-Me

CCC(=O)C(C)=O [2,3-pentanedione]
Vmax (Gox0644 [1]): 70 U/mg protein | Vmax (Gox1615 [2]): 7.0 U/mg protein | Product (stereoselective reduction) (Gox0644 [3]; [5]): 2R-hydroxy-pentan-3-one | Product (regioselective reduction) (Gox0644 [3]; determined by NMR analysis): 2-hydroxy-pentan-3-one | Product (stereoselective reduction) (Gox1615 [4]; [5]): 2S-hydroxy-pentan-3-one | Product (regioselective reduction) (Gox1615 [4]; determined by NMR analysis): 2-hydroxy-pentan-3-one
